Laboratory results: ChEMBL document CHEMBL1201862, “PubChem BioAssay data set” (2004)
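Interpolation was linear, between the two tested concentrations surrounding the appropriate level; five concentrations were tested over 48 hours in 96-well plates. GI50: concentration for 50% inhibition of growth.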 Activity calls are given as the source filed them. Cut-off read from the data, not from the text of the source: active = GI50 up to about 1.1 µM and inactive = higher.

How the values were obtained:
Test in all cases: NCI anticancer screen, dose series, 48 h
786-0 = tested on: 786-0
A498 = tested on: A498
A549 = tested on: A549
ACHN = tested on: ACHN
CAKI-1 = tested on: CAKI-1
CCRF-CEM = tested on: CCRF-CEM
DU-145 = tested on: DU-145
EKVX = tested on: EKVX
HCC 2998 = tested on: HCC 2998
HCT-116 = tested on: HCT-116
HCT-15 = tested on: HCT-15
HL-60 = tested on: HL-60
HOP-62 = tested on: HOP-62
HOP-92 = tested on: HOP-92
HT-29 = tested on: HT-29
Hs-578T = tested on: Hs-578T
IGROV-1 = tested on: IGROV-1
K562 = tested on: K562
KM12 = tested on: KM12
LOX IMVI = tested on: LOX IMVI
M14 = tested on: M14
MCF7 = tested on: MCF7
MDA-MB-231 = tested on: MDA-MB-231
MDA-MB-435 = tested on: MDA-MB-435
MDA-N = tested on: MDA-N
MOLT-4 = tested on: MOLT-4
Malme-3M = tested on: Malme-3M
NCI-H226 = tested on: NCI-H226
NCI-H23 = tested on: NCI-H23
NCI-H460 = tested on: NCI-H460
NCI-H522 = tested on: NCI-H522
NCI/ADR-RES = tested on: NCI/ADR-RES
OVCAR-3 = tested on: OVCAR-3
OVCAR-4 = tested on: OVCAR-4
OVCAR-5 = tested on: OVCAR-5
OVCAR-8 = tested on: OVCAR-8
RPMI-8226 = tested on: RPMI-8226
RXF 393 = tested on: RXF 393
SF-268 = tested on: SF-268
SF-295 = tested on: SF-295
SF-539 = tested on: SF-539
SK-MEL-28 = tested on: SK-MEL-28
SN12C = tested on: SN12C
SNB-19 = tested on: SNB-19
SNB-75 = tested on: SNB-75
SR = tested on: SR
SW-620 = tested on: SW-620
T47D = tested on: T47D
TK-10 = tested on: TK-10
U-251 = tested on: U-251
UACC-257 = tested on: UACC-257
UACC-62 = tested on: UACC-62
UO-31 = tested on: UO-31
COLO 205 = tested on: COLO 205
PC-3 = tested on: PC-3
SK-MEL-5 = tested on: SK-MEL-5
SK-OV-3 = tested on: SK-OV-3

COC(=O)c1c(C)cccc1C1CN=NC12Cc1ccc(C)c(C)c1C2=O (configuration not stated)
GI50 (786-0): 51.3 µM (inactive) | GI50 (A498): 36.3 µM (inactive) | GI50 (A549): 18.2 µM (inactive) | GI50 (ACHN): 27.2 µM (inactive) | GI50 (CAKI-1): > 100 µM (inactive) | GI50 (CCRF-CEM): 24.3 µM (inactive) | GI50 (DU-145): 54.6 µM (inactive) | GI50 (EKVX): 12.2 µM (inactive) | GI50 (HCC 2998): 23.5 µM (inactive) | GI50 (HCT-116): 14.8 µM (inactive) | GI50 (HCT-15): 23.2 µM | GI50 (HL-60): 8.59 µM (inactive) | GI50 (HOP-62): 77.1 µM (inactive) | GI50 (HOP-92): 28.6 µM (inactive) | GI50 (HT-29): 25.7 µM (inactive) | GI50 (Hs-578T): 37.7 µM (inactive) | GI50 (IGROV-1): 46.2 µM (inactive) | GI50 (K562): 18.2 µM (inactive) | GI50 (KM12): 34.3 µM (inactive) | GI50 (LOX IMVI): 3.21 µM (inactive) | GI50 (M14): 30.5 µM (inactive) | GI50 (MCF7): 24.4 µM (inactive) | GI50 (MDA-MB-231): 39.4 µM (inactive) | GI50 (MDA-MB-435): 31.4 µM (inactive) | GI50 (MDA-N): 45.2 µM (inactive) | GI50 (MOLT-4): 12.2 µM (inactive) | GI50 (Malme-3M): 28.6 µM (inactive) | GI50 (NCI-H226): 44.6 µM (inactive) | GI50 (NCI-H23): 46.5 µM (inactive) | GI50 (NCI-H460): 22.8 µM (inactive) | GI50 (NCI-H522): 12.9 µM (inactive) | GI50 (NCI/ADR-RES): 15.2 µM (inactive) | GI50 (OVCAR-3): 32.4 µM (inactive) | GI50 (OVCAR-4): 24.9 µM (inactive) | GI50 (OVCAR-5): > 100 µM (inactive) | GI50 (OVCAR-8): 27.1 µM (inactive) | GI50 (RPMI-8226): 9.84 µM (inactive) | GI50 (RXF 393): 20.9 µM (inactive) | GI50 (SF-268): 49.4 µM (inactive) | GI50 (SF-295): 42.7 µM (inactive) | GI50 (SF-539): 68.9 µM (inactive) | GI50 (SK-MEL-28): > 100 µM (inactive) | GI50 (SN12C): 50 µM (inactive) | GI50 (SNB-19): 50.9 µM (inactive) | GI50 (SNB-75): 96.4 µM (inactive) | GI50 (SR): 16.6 µM (inactive) | GI50 (SW-620): 33.4 µM (inactive) | GI50 (T47D): 3.2 µM (inactive) | GI50 (TK-10): > 100 µM (inactive) | GI50 (U-251): 35.2 µM (inactive) | GI50 (UACC-257): 26.2 µM (inactive) | GI50 (UACC-62): 15.3 µM (inactive) | GI50 (UO-31): 42.4 µM (inactive)

CC(C)=CCN(N=O)c1ncnc2[nH]cnc12
GI50 (786-0): > 100 µM (inactive) | GI50 (A498): 95.1 µM (inactive) | GI50 (A549): > 100 µM (inactive) | GI50 (ACHN): > 100 µM (inactive) | GI50 (CAKI-1): > 100 µM (inactive) | GI50 (CCRF-CEM): > 100 µM (inactive) | GI50 (COLO 205): > 100 µM (inactive) | GI50 (DU-145): > 100 µM (inactive) | GI50 (EKVX): > 100 µM (inactive) | GI50 (HCC 2998): > 100 µM (inactive) | GI50 (HCT-116): > 100 µM (inactive) | GI50 (HL-60): > 100 µM (inactive) | GI50 (HOP-62): > 100 µM (inactive) | GI50 (HOP-92): > 100 µM (inactive) | GI50 (HT-29): > 100 µM (inactive) | GI50 (Hs-578T): > 100 µM (inactive) | GI50 (IGROV-1): > 100 µM (inactive) | GI50 (K562): 73.6 µM (inactive) | GI50 (KM12): > 100 µM (inactive) | GI50 (LOX IMVI): 92.5 µM (inactive) | GI50 (M14): > 100 µM (inactive) | GI50 (MCF7): > 100 µM (inactive) | GI50 (MDA-MB-231): > 100 µM (inactive) | GI50 (MDA-MB-435): > 100 µM (inactive) | GI50 (MDA-N): > 100 µM (inactive) | GI50 (MOLT-4): > 100 µM (inactive) | GI50 (Malme-3M): > 100 µM (inactive) | GI50 (NCI-H226): > 100 µM (inactive) | GI50 (NCI-H23): > 100 µM (inactive) | GI50 (NCI-H460): > 100 µM (inactive) | GI50 (NCI-H522): > 100 µM (inactive) | GI50 (NCI/ADR-RES): > 100 µM (inactive) | GI50 (OVCAR-3): > 100 µM (inactive) | GI50 (OVCAR-4): 89.5 µM (inactive) | GI50 (OVCAR-5): > 100 µM (inactive) | GI50 (OVCAR-8): > 100 µM (inactive) | GI50 (PC-3): 94.6 µM (inactive) | GI50 (RPMI-8226): 88.1 µM (inactive) | GI50 (RXF 393): > 100 µM (inactive) | GI50 (SF-268): > 100 µM (inactive) | GI50 (SF-295): > 100 µM (inactive) | GI50 (SF-539): > 100 µM (inactive) | GI50 (SK-MEL-28): > 100 µM (inactive) | GI50 (SK-MEL-5): > 100 µM (inactive) | GI50 (SK-OV-3): > 100 µM (inactive) | GI50 (SN12C): > 100 µM (inactive) | GI50 (SNB-19): > 100 µM (inactive) | GI50 (SNB-75): 54.8 µM (inactive) | GI50 (SR): 75.3 µM (inactive) | GI50 (SW-620): > 100 µM (inactive) | GI50 (T47D): 94.6 µM (inactive) | GI50 (TK-10): > 100 µM (inactive) | GI50 (UACC-257): > 100 µM (inactive) | GI50 (UO-31): > 100 µM (inactive)
